This is an account of results in patent publication US12055536B2, “Device for detection of cellular stress” (Trustees of Boston University, priority 2021, dated 2024).

Common to all, as to type: cell-based, human
Test [1] deals with PEO1 cells. In words: OCR and ECAR by Seahorse analysis. The note with it: 13.2 μM cisplatin. As to the method: (§1) Cell lines were seeded in a Seahorse® XF96 Cell Culture Microplate (Agilent) at density of 6×10^4 (OVCAR5 pair) or 4×10^4 (PEO pair) per well. After incubation at 37° C. overnight for cell attachment, OCR, and extracellular acidification rate (ECAR) were measured through Seahorse® XFe96 Analyzer (Agilent). Measurement time was 30 seconds following 3 minutes mixture and 30 seconds waiting time. First three cycles were used for basal respiration measurement. […] Basal respiration, ATP production and maximal respiration reduction were calculated following the manufacturer's instructions.

In test [2] the test system is PEO4 cells. The experiment in a line: OCR and ECAR by Seahorse analysis. The settings on record: 13.2 μM cisplatin. As to the method:
as §1

Test [3] relates to OVCAR5 cells. The experiment in a line: Reactive oxidative species measurement (DCFDA). The settings on record: cisplatin 1.6 μM or 3.3 μM for 24 hours. As for the experimental part: (§2) Cellular reactive oxidative species (ROS) was measured using a fluorescent probe, 2′,7′-Dichlorofluorescin diacetate (DCFDA) (Sigma Aldrich). […] DCFDA was added to the medium at final concentration of 10 μM and incubated for 15 min. After washing with PBS for 3 times, cells were immediately imaged under confocal microscope (Zeiss LSM 700 microscope) with 488 nm as the exciting source. Laser power was controlled at low setting to avoid fluorescence extinction. Images at ˜10 field of view were acquired for each sample.

The test system of test [4] is OVCAR5-cisR cells. The experiment in a line: Reactive oxidative species measurement (DCFDA). The note with it: cisplatin 1.6 μM or 3.3 μM for 24 hours. As for the experimental part: as §2
A further test concerns MD-MBA231 cells. The experiment in a line: Isotope labeling and SRS imaging after cisplatin treatment. The note with it: 6.6 μM cisplatin for 24 hours, then 100 μM PA-d31 or OA-d34 for 6 h. As to the method: (§3) For labeling with glucose-d7, media was replaced with glucose-free DMEM medium (Thermo Fisher Scientific, #11966025)+10% FBS+P/S supplemented with 25 mM glucose-d7 after seeding the cells in 35 mm glass-bottom dishes overnight. For labeling with FA or analogs, including PA-d31, OA-d34, and ODYA, FA or analogs were added to the culture media at final concentration of 100 μM and cells were treated for 6 h. For quantitative SRS imaging, cells on glass-bottom dishes were fixed with 10% neutral buffered formalin for 30 min and washed with PBS for 3 times. Hyperspectral SRS imaging was performed to the cells at Raman spectral region from 2100 to 2300 cm^−1.
(§4) Platinum is widely used across malignancies. […] These findings are broadly applicable to multiple types of cisplatin-resistant cancers. FIG. 8 illustrates the cellular metabolism switch from glycolysis to fatty acid oxidation with decreased glucose uptake, glycolysis and de novo lipogenesis while fatty acid uptake and oxidation are increased.

The subject of a further test is A549 cells. The description is as above. The settings on record: 13.2 μM cisplatin for 48 hours, then 100 μM PA-d31 or OA-d34 for 6 h. As for the experimental part:
as §3, §4

The subject of the next test is MIA PaCa-2 cells. Described as above. The settings on record: 6.6 μM cisplatin for 24 hours, then 100 μM PA-d31 or OA-d34 for 6 h. As for the experimental part: as §3, §4
In test [5] the test system is OVCAR5 cells. In words: Cell viability assay (dose-response). The note with it: read-out: IC50 for cisplatin; OVCAR5 cells. As for the experimental part:
(§5) Cell viability was measured by MTS assay (Abcam, #ab197010) or by CellTiter-Glo™ assay (Promega, #G7570). Cells were seeded at 96-well plates at densities of 2000˜5000 cells per well overnight. Treatment was added to the cells at indicated concentrations for 72 h. Cell viability was measured by incubating with MTS reagent for 4 h and reading absorbance at 490 nm or incubating with CellTier-Glo™ reagent for 10 min and reading luminescence by a plate reader. Six replicates were used for each group.
(§6) In addition, isogenic PEO1/PEO4 cell lines derived from the same patient were studied, at the time of a platinum sensitive (PEO1) and platinum resistant-recurrence (PEO4).
(§7) Having shown decreased glucose-derived anabolism and increased fatty acid uptake in cisplatin-resistant ovarian cancer cells, whether this metabolic feature can be used for differentiation of cisplatin-resistant from cisplatin-sensitive cancer cells was explored. […] In Table 2 below, quantitation of glucose-d7 (G-d7), PA-d31, and OA-d34 are shown as area fraction of C-D signal out of total cellular area, in mean values.

In the next test the test system is COV362-cisR cells. The experiment in a line: Cell viability assay (dose-response). The settings on record: read-out: IC50 for cisplatin; COV362-cisR cells. As to the method:
as §5, §6, §7

Test [6] deals with PEO1 cells. The experiment in a line: Cell viability assay (dose-response). The settings on record: read-out: IC50 for cisplatin; PE01 cells. As for the experimental part: as §5, §6, §7
Test [7] deals with PEO4 cells. The experiment in a line: Cell viability assay (dose-response). The note with it: read-out: IC50 for cisplatin; PE04 cells. As for the experimental part: as §5, §6, §7
For a further test, the system named is COV362 cells. In words: Cell viability assay (dose-response). The settings on record: read-out: IC50 for cisplatin. As to the method: as §5, §6, §7
The subject of another test is SKOV3-cisR cells. The experiment in a line: Cell viability assay (dose-response). The note with it: read-out: IC50 for cisplatin; SKOV3-CisR cells. As to the method:
as §5, §6, §7

Test [8] deals with OVCAR5-cisR cells. The experiment in a line: Cell viability assay (dose-response). The note with it: read-out: IC50 for cisplatin; OVCAR5-CisR cells. As for the experimental part: as §5, §6, §7
Test [9] has as its system OVCAR5 cells. In words: Glucose uptake assay (2-NBDG). The settings on record: 3.3 μM cisplatin for 24 hours, 100 μM 2-NBDG for 2 hours. As for the experimental part: Glucose uptake was measured using a fluorescent glucose analog 2-deoxy-2-[(7-nitro-2,1,3-benzoxadiazol-4-yl) amino]-D-glucose (2-NBDG) (Cayman Chemicals). Cells seeded in glass-bottom dishes were incubated with 100 μM 2-NBDG for 2 h. Fluorescent images were taken by confocal microscope (Zeiss® LSM 700 microscope) with 488 nm laser as excitation source. Images at ˜10 field of view were acquired for each sample.

In test [10] the test system is cisplatin-resistant OC cell lines. The experiment in a line: Cisplatin dose response, resistant versus parental cell lines. The note with it: all the resistant cell lines versus parental. From the text: Ovarian cancer cell lines used in the methods include SKOV3, PEO1, OVCAR5, and COV362, and their cisplatin-resistant counterparts include SKOV3-cisR, PEO4, OVCAR5-cisR, and COV362-cisR. SKOV3 (Cat #: HTB-77), Mia Paca2 (Cat #: CRL-1420), MDA-MB-231 (Cat #: CRM-HTB-26) and A549 (Cat #: CCL-185) cells were purchased from the American Type Culture Collection (ATCC, Manassas, VA). PEO1 (Cat #: 10032308) and PEO4 (Cat #: 10032309) were purchased from Sigma Aldrich. OVCAR5 cells were a generous gift from Dr. Marcus Peter, Northwestern University, and COV362 cells were from Dr. Kenneth Nephew, Indiana University. All cell lines were authenticated and tested to be mycoplasma negative. Mia Paca2 and A549 are in the list of known misidentified cell lines maintained by the International Cell Line Authentication Committee, while their authentication was performed by ATCC through STR profiling. […] Surviving cells were allowed to recover for 3 to 4 weeks before receiving the next treatment. […]
Cell viability was measured by MTS assay (Abcam, #ab197010) or by CellTiter-Glo™ assay (Promega, #G7570). […] Cell viability was measured by incubating with MTS reagent for 4 h and reading absorbance at 490 nm or incubating with CellTier-Glo™ reagent for 10 min and reading luminescence by a plate reader. […]

Another test has as its system A549 lung cancer. In words: Cell viability assay (dose-response). The settings on record: 6.6 μM cisplatin. As to the method: as §5, §4
The test system of the next test is MD-MBA231 breast cancer. The experiment in a line: Cell viability assay (dose-response). The settings on record: 6.6 μM cisplatin. As to the method:
as §5, §4

Test [11] deals with MIA PaCa-2 pancreatic cancer. The experiment in a line: Cell viability assay (dose-response). The settings on record: 6.6 μM cisplatin. As for the experimental part: as §5, §4

On to `N.N.[Cl][Pt][Cl]` [cisplatin], for which the ECAR rate entry with PEO1 cells [1] and in the test with PEO4 cells [2] was “promptly lowered” each time. Moreover, the OCR entry with PEO1 cells [1] (before and 30 minutes after) was “slight increase of OCR”; in the test on PEO4 cells [2] (before and 30 minutes after), “slight increase of OCR”. Further, the “ROS production (DCF fluorescent signal intensity)” value with OVCAR5 cells [3] and in the test on OVCAR5-cisR cells [4] was “significant increase of ROS production” in each case. Also, the “PA-d31 and OA-d34 uptake (C-D signal)” value in the test on MD-MBA231 cells and in the test on A549 cells was “significant increase” throughout. Besides, in the test on MIA PaCa-2 cells, the “uptake of PA-d31 and OA-d34 (C-D signal)” value is given as “significantly increased”. The IC50 (commonly the concentration that gives 50% inhibition) was determined as 8.26 µM in the test with OVCAR5 cells [5]; 15.2 µM in the test with COV362-cisR cells; 4.72 µM with PEO1 cells [6]; 13.6 µM in the test on PEO4 cells [7]; 7.19 µM with COV362 cells; 17.3 µM in the test with SKOV3-cisR cells. The IC50 with OVCAR5-cisR cells [8] came to 17.4 µM. Moreover, in the test on OVCAR5 cells [9], the “glucose uptake, measured by 2-NBDG” value is “reduced”. In addition, the “increase of IC50 compared to parental counterpart cell lines” value in [10] is on record as 2-3 fold. Besides, the cell death result (with A549 lung cancer; in the test on MD-MBA231 breast cancer; in test [11]) was “no significant cell death” in each case.
